Experiments:
Type in all cases: cell-based, mouse
[1] = tested on: WT MEFs; experiment: Confocal immunofluorescence (compartment size, Mander's colocalization, filipin) in WT MEFs
Procedure: (§1) Cells were treated with the following drugs, usually for 4 days, unless otherwise stated: DAPT (2634/10, Tocris) 1 μM final; Inhibitor X (565771-250 μg, Calbiochem/Merck) 1 μM final; β-Secretase Inhibitor IV (565788, Calbiochem/Merck) 2 μM final, (2-Hydroxypropyl)-γ-cyclodextrin (H125-5G-I, Sigma Aldrich) 1 mM final; Adam 10 inhibitor G1254023X (SML0789, Sigma Aldrich) 3 μM final. For OSW-1 (30310-1, Sanbio/Cayman Chemical), cells were treated overnight with 10 nM. Diluent treatment alone (in most cases DMSO, water for the cyclodextrin) was used as vehicle control.
Immunofluorescence: Cells were fixed (4% paraformaldehyde (PFA)/4% sucrose in PBS free of Ca2+ and Mg2+ (PBS−/−) 20 min, RT), permeabilized (0.1% triton X-100 in PBS−/−; 10 min, RT), and blocked (2% BSA, 2% FBS, 1% gelatin, and depending of the experiment 2% of goat or donkey serum (Bioké or Sigma), 1 h RT). Primary antibodies diluted in the same blocking buffer were incubated overnight at 4° C. Following PBS washing steps, (goat- or donkey-) secondary antibodies conjugated with Alexa fluor dyes (Alexa 488, 568, or 647, all ThermoFisher Scientific) diluted in the blocking buffer were incubated for 1 h, RT. Coverslips were then mounted with Mowiol (Sigma). When cholesterol labelling was performed, fixed cells were treated with 200 μg·ml−1 filipin (F4767, Sigma) for 2 h at RT, prior to permeabilization.
Acquisition: Z stack images (spacing 2 μm), or a median plan were acquired on a Nikon 1AR connected to an inverse Nikon Ti-2000 equipped with an oil-immersion plan APO 60× objective lenses with 1.40 NA. Data were collected using Nikon Imaging Software.
Image analysis: All image analysis was done using Image J software (Schindelin et al 2012; Schneider et al 2012). To measure the area of the organelle of interest (early endosomes-EEA1; lysosomes-Lamp1; retromer-VPS35 . . . ), segmentation was realized using automatic thresholding. The following masks were used: Mean (EEA1), Ostu (Lamp1), Intermodes (VPS35). Overlap of signal of interests were quantified with Manders colocalisation index (Plugin Jacob, (Bolte and Cordelieres 2006)). When indicated, co-localization data was normalized to the reference group for multiple comparisons.

[2] = tested on: APPKO cells; experiment: Lysosomal Ca2+ content, Fura-2AM loaded cells challenged with GPN, APPKO cells; details: 1 μM, 4 days, normalized to DMSO
Excerpt: Diluent treatment alone (in most cases DMSO, water for the cyclodextrin) was used as vehicle control.
Briefly, the web-based CRISPR design tool was used to select the sequence to be targeted in mouse PSEN1 and PSEN2 (i.e. 5′-[…]-3′ and 5′-[…]-3′, respectively). Oligo pairs encoding guide sequences (obtained from Integrated DNA Technologies, IDT) were annealed and ligated into the pX330 plasmid (Addgene) according to the Zhang's laboratory protocol (https://www.addgene.org/crispr/zhang/). MEF cells were then transfected with the pX330-PSEN1 and PX330-PSEN2, using Fugene HD (Promega), in accordance with the manufacturer protocol. Selection of PSENdKO clones was achieved through serial dilution and confirmed by WB analysis. Further depletion of APP in different PSENdKO clones was achieved through electroporation of RNP complexes. […]
Cells were rinsed three times and left to equilibrate for at least 15-20 min (RT). […] Briefly, cells were segmented manually and fluorescence intensities were measured over time. Fura-2 signals were corrected to obtain ΔF/F0 (F0 being the initial signal recorded). For each cell, the area under the curve, corresponding to the aforementioned stimulation, was measured using GraphPad Prism.

[3] = tested on: WT MEFs; experiment: Lysosomal Ca2+ content, Fura-2AM loaded cells challenged with GPN, WT cells; details: normalized to DMSO
Procedure: as §1
Cytosolic response: Ca2+ responses were measured as previously described in Coen et al 2012. Briefly, cells (0.005 to 0.01×106) were seeded two to three days prior to the experiment on glass coverslips (631-0153, VWR). On the day of recording, cells were rinsed three times in Ringer solution (155 mM NaCl, 5 mM KCl, 2 mM MgCl2, 2 mM CaCl2, 10 mM Glucose, 10 mM HEPES, 2 mM NaH2PO4·2H20; pH 7.3), and loaded 1 μM Fura2-AM (F1221, ThermoFisher Scientific) for 30 min (RT). Cells were rinsed three times and left to equilibrate for at least 15-20 min (RT). All acquisitions were carried out in Ringer Ca2+ free solution (same as above, albeit the 2 mM CaCl2 were replaced by 2 mM EGTA). During experiments, cells were challenged with different drugs, such as Thapsigargin (T7459, ThermoFisher Scientific, 1 μM final), GPN (ab145914, abcam, 100 μM final for MEFs, 500 μM for neurons), MLSA1 (Cat. No. 4746, Tocris, 20 μM final) or lonomycin (10634, Sigma Aldrich, 1 μM final). Images were acquired every 5 sec for 8-10 min, using an Olympus IX81 using an UAPO/340 40× oil objective (1.35 NA), operated by CellR Software (Olympus). Recordings were done using 340 and 380 nm excitation, and 530 nm emission filters. Image processing was performed using Image J Software (Schindelin et al 2012; Schneider et al 2012). Briefly, cells were segmented manually and fluorescence intensities were measured over time. Fura-2 signals were corrected to obtain ΔF/F0 (F0 being the initial signal recorded). For each cell, the area under the curve, corresponding to the aforementioned stimulation, was measured using GraphPad Prism.

[4] = tested on: WT MEFs; experiment: Immunoblot of APP-CTFs in drug-treated WT MEFs; details: 1 μM for 1-4 days, vs DMSO
Procedure: as §1
Whole cell extracts were prepared starting from lysed cultured cells (80% confluency). Protein concentration was determined using the Bio-Rad DC protein assay (Bio-Rad). These extracts were run on 4-12% Bis-Tris Bolt or NuPAGE precast gels in MES/MOPS running buffer (Invitrogen), followed by transfer on nitrocellulose membranes (Life Technologies). Of note, for APP-CTFs characterization, samples were run on 16% tricine gels (Life Technologies) in the appropriate running buffer (LC1675, Life Technologies). Membranes were blocked with 5% non-fat milk (1 h, RT), incubated with primary antibodies (overnight, 4° C.), rinsed and incubated with HRP-conjugated secondary antibodies (1 h, RT). […]

Compound: C[C@H](NC(=O)Cc1cc(F)cc(F)c1)C(=O)N[C@H](C(=O)OC(C)(C)C)c1ccccc1 [DAPT]
- early endosomes (EEA1) size ([1]; 1 μM for 1-4 days): significantly enlarged only after 4 days of treatment
- APP-CTF accumulation in LAMP1-positive LE/Lys (Mander's colocalization APP-Lamp1) ([1]; 1 μM for 1-4 days, vs DMSO): increasing APP-CTF accumulation
- cholesterol accumulation in LE/Lys (Filipin-Lamp1 colocalization) ([1]; 1 μM for 1-4 days, vs DMSO): only significantly from day 2
- colocalization of VPS35 and EEA1 with Lamp1 ([1]; 1 μM for 1-4 days, from day 3 onward): increased colocalization of VPS35 and EEA1 with Lamp1
- VPS35-positive organelles (size) ([1]; 1 μM, following 3 days of treatment): found to be increased
- Lysosomal Ca2+ content (GPN-elicited Ca2+ response) [2]: did not affect the GPN-elicited Ca2+ response
- lysosomal Ca2+ content ([3]; 1 μM for 1-4 days, 100 μM GPN): significantly reduced lysosomal Ca2+ content
- lysosomal Ca2+ content ([3]; WT cells, 1 μM, 4 days): reduced
- APP-CTFs level (immunoblot) [4]: rapidly accumulated APP-CTFs
